Key:
[1] = test system: HT-1080 cells; assay: Invasion assay after 1 hour pre-treatment with novobiocin or nalidixic acid; assay type: cell-based, human; conditions: cells pre-treated for 1 hour; normalized to no drug control; result in words
Procedure: HT-1080 cells were pre-treated for 1 hour with novobiocin or nalidixic acid and an invasion assay was performed. […] Viability of cells in this assay was not affected (data not shown). Each data point is normalized to the no drug control and represents the mean.+−.s.e.m. of 2 experiments in triplicate.
(§1) The ChemoTx® system (Neuro Probe Inc. #106-8, Gaithersburg) was used as a disposable chemotaxis/cell migration chamber in a 96 well format with an 8 μm filter Track etched Polycarbonate pore size, 5.7 mm diameter/site.
(§2) 13.3 μl of 0.3 mg/ml Matrigel (see Example 8) diluted in cold Dulbeccos PBS (Gibco #14040-091) was applied on the membrane filter of the 96-well plate on row B-H and on row A0.3 μg/site of mouse collagen, type IV (Becton-Dickenson #354233) was diluted in 0.05 M HCL (Sigma #945-50) and was incubated over night at 20° C. in a desiccator for gelation, HT-1080 cells were grown to 70-80% confluence in DMEM supplemented with MEM non-essential amino acids (IX, Gibco #11140050) and Penicillin/Streptomycin (1×, Gibco #15140122) with 10% FBS (Hyclone #SH30070.03). […] After scraping the non-migrating cells from the top of the membrane (except the Standard curve on row A) fluorescence of cells, which had migrated through the membrane (not migrated in case of the Standard curve), was measured on the Tecan Spectrafluor Plus fluorescence plate reader (excitation: 544, emission: 590 nm). […]

[2] = test system: HT-1080 cells; assay: Viability of cells in the novobiocin invasion assay; assay type: cell-based, human; conditions: data not shown
Procedure: 8×10^6 HT-1080 cells/mL were pretreated for 1 hour with novobiocin or nalidixic acid at the concentrations shown and an invasion assay was performed as described in Example 9.1. […] Viability of novobiocin-treated cells in this assay was not affected (data not shown). Each data point is normalized to the no drug control and represents the mean.+−.s.e.m. of 2 experiments in triplicate.

[3] = test system: matrix metalloprotease (MMP); assay: Gelatin zymography of conditioned media (MMP secretion/activity); assay type: cell-based, human; conditions: 40,000 HT-1080 cells treated 6 hours
Procedure: 40,000 HT-1080 cells were treated for 6 hours with novobiocin or nalidixic acid (as a control) at the given concentrations. […] Two bands (A and B) correspond to unidentified MMPs. (Image inverted for clarity.)
40,000 HT-1080 cells were treated for 6 hours with novobiocin or nalidixic acid at the given concentrations. The conditioned media from treated cells was separated using a SDS-PAGE gel containing 10 mg/mL gelantin. SDS was removed from the gel using 2.5% Triton-X-100 for 30 minutes at room temperature. Proteins were allowed to digest the gelatine in digestion buffer (0.1M […], pH 8.0, 5 mM CaCl2, 0.04% NaN3) for 48 hours at 37° C. Gels were coomassie-stained and dried for densitometry. Parallel gels were silver stained to show equal loading of protein (data not shown).

[4] = test system: HT-1080 cells; assay: In vitro invasion assay with geldanamycin or GA-beads (Example 8); assay type: cell-based, human; conditions: 10 μM for 1 hour; eliminated when activated MMP2 (100 ng) was added; data not shown
[5] = test system: MMP2 (72 kDa gelatinase); assay: Zymography of secreted MMP2 after geldanamycin treatment; assay type: cell-based, human; conditions: HT-1080 cells, 20 μM in serum-free media
Procedure: HT-1080 cells were treated with 20 μM geldanamycin (GA) in serum-free media and assayed by zymography. MMP2 (72 kDa gelatinase) activity was decreased by ˜35% after GA treatment. Total protein content was visualized by silver staining to ensure equal loading.
We then applied a known Hsp90 inhibitor, geldanamycin, to HT-1080 cells to test whether inhibition of Hsp90 reduced MMP2 activity. HT-1080 cells were treated with 20 μM geldanamycin (GA) in serum-free media and secreted MMP2 was assayed by zymography. MMP2 (72 kDa gelatinase) activity was decreased by ˜35%; p<0.01 after GA treatment. Total protein content in conditioned media was visualized by silver staining to ensure equal loading. (See, FIG. 18).

[6] = test system: HT-1080 cells; assay: Invasion assay with FITC-labelled antibodies and CALI (Example 9.1); assay type: cell-based, human; conditions: FITC-labelled antibody, 300 W blue-filtered light for one hour; result in words
Procedure: Each bar is normalized to dark control and represents the mean.+−.s.e.m of at least 2 experiments in triplicate.
as §1, §2

[7] = test system: HT-1080 cells; assay: Cell-matrix adhesion assay (Collagen S type I); assay type: cell-based, human; conditions: FITC labeled scFv, assay with CALI; data not shown
Procedure: 96-well plates (TPP #9296) (cell culture treated) were coated in Row B-H with collagen S type I 1 μg/well (Roche #10982929) in Dulbeccos PBS (Gibco #14040-091) and in Row A well 10-12 were coated with 2% BSA (Sigma #A-7030)/Dulbeccos PBS at 4° C. over night. The plate was washed with Dulbeccos PBS, blocked Row B-H and Row A well 10-12 with 2% BSA/Dulbeccos PBS for 1 h at 37° C. and washed again with Dulbeccos PBS. […] Fluorescence of cells, which had adhered to the Collagen S type 1 (not adhered in case of the Standard curve), was measured on the Fluostar Galaxy (bMG) microplate reader using excitation/emission wavelengths of 370/460 nm. scFv1 inhibited the adhesion of HT-1080 cells to Collagen S type 1 by 50%. […]

[8] = test system: HT-1080 cells; assay: FACS analysis for tumor cell specific binding; set-up: species or system human; conditions: 10 μg/ml scFv; HT-1080 versus HS-27 control cells
Procedure: The binding activity of scFv1 to HT-1080 cells (bold line) and to HS-27 cells (thin line) as control is illustrated.
To test the ability of purified anti HT-1080 scFv to bind specifically to target cells, we performed a fluorescence-activated cell sorter (FACS) analysis using HT-1080 cells (ATCC CCL-121) and Hs-27 cells (10^6 cells/ml) as control cell line (see Figures). Cells were incubated with 10 μg/ml of pure scFv in CellWash (BD (Becton, Dickinson and Company) #349524) for 20 min at 4° C., washed, and bound scFv's were detected with a secondary FITC labeled anti E-tag mab (Amersham #27-9412-01). Samples were washed and analyzed on a Becton Dickinson FACSscan. […] The thin line represents the control cell line (HS-27) and the bold line the HT-1080 cells. scFv1 specifically stains the tumor cell lines with up to 10 fold higher signal compared to the control cell line.

Molecule: CO[C@@H]1[C@@H](OC(N)=O)[C@@H](O)[C@H](Oc2ccc3c(O)c(NC(=O)c4ccc(O)c(CC=C(C)C)c4)c(=O)oc3c2C)OC1(C)C [novobiocin]
- effect on invasion of HT-1080 cells [1]: dose-dependent inhibition of invasion
- viability of treated cells [2]: not affected
- decrease of MMP activity ([3]; highest concentration tested, zymography densitometry): > 75%

Molecule: COC1=C2C[C@@H](C)C[C@H](OC)[C@H](O)[C@@H](C)/C=C(\C)[C@H](OC(N)=O)[C@@H](OC)/C=C\C=C(/C)C(=O)NC(=CC1=O)C2=O [geldanamycin]
- decrease of invasion of HT-1080 cells [4]: ~35%
- decrease of MMP2 (72 kDa gelatinase) activity [5]: ~35%

Molecule: CCn1cc(C(=O)O)c(=O)c2ccc(C)nc21 [nalidixic acid]
- effect on invasion of HT-1080 cells [1]: no effect on invasion
- reduction of MMP enzyme activity ([3]; zymography): no reduction of enzyme activity

Molecule: JB1: FITC-labeled anti-beta 1 integrin monoclonal antibody (JB1, Chemicon #MAB1963), positive control
- reduction of invasion after exposure to light [6]: significant (p<0.01, unpaired t-test) reduction of invasion

B1: scFv1: single chain Fv antibody fragment from phage library of mice immunized with HT-1080 cells; SEQ ID NO: 1 (protein, listed as Mus sp.)
scFv: QVQLKESGAELVKPGASVKLSCTASGFNIKDYYMHWVKQRTEQGLEWIGRIDPEDGETKYAPKFQGKATITADTSSNTAYLQLSSLTSEDTAVYYCARSYDYAMDYWGQGTTVTVSTGGGGSGGGGSGGGGSALQIVLTQSPALMSASPGEKVTMTCSASSSVSYMHWYQQKSGTSPKRWIYDTSKLASGVPARFSGSGSGTSYSLTISSMEAEDAATYYCQQWSSNPLTFGAGTKLELKAAAGAPVPYPDPLEPRGAASAWSHPQFEK
- inhibition of adhesion of HT-1080 cells to Collagen S type 1 [7]: 50%
- FACS signal on tumor cell line compared to control cell line [8]: up to 10 fold
